For series [1] the following is noted: cited from earlier work.
Series [2] relates to template RNA, influenza A(H3N2) NA region 675-1075 bases. Put plainly: RT-SmartAmp nucleic acid amplification inhibition due to SDS (DNA polymerase inhibitory activity), without rhinal mucosa. The format is biochemical. As to conditions: 0.5% Triton X-100 in reaction solution, 5 μL of 0.1% SDS solution added; FIG. 10.

The values below come from US9518901B2, “Pretreatment method of biological sample, detection method of RNA, and pretreatment kit” (KABUSHIKI KAISHA DNAFORM, priority 2011, dated 2016).

By pKa is commonly meant the pH at which an ionisable group is half protonated. Consider `O=S(=O)(O)CCN1CCOCC1` [MES], for which, in series [1], the pKa is listed as 6.15.

As for Triton X-100, the “nucleic acid amplification activity (mitigation of inhibition due to SDS)” value in series [2] was “prominent nucleic acid amplification was recognized”.
